T1: OAT2r (Rattus norvegicus, UniProt Q5RLM2)
T1 construct: expressed in transfected cells
T1 sequence (Q5RLM2 1-535): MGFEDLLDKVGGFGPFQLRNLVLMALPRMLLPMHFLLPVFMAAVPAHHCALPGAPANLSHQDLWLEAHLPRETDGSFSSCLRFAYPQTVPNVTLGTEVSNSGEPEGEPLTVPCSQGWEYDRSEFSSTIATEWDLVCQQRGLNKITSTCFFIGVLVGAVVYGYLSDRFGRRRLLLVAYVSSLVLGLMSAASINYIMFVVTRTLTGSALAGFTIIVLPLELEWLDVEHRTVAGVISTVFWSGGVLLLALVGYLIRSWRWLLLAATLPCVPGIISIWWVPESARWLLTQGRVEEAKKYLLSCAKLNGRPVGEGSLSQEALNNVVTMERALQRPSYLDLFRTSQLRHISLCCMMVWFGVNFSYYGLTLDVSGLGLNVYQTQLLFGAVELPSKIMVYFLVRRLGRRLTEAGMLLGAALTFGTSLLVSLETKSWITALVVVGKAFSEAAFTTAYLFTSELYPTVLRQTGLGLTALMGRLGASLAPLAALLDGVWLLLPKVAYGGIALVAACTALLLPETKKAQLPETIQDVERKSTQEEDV

T2: OAT2h (Homo sapiens, UniProt Q9Y694)
T2 construct: expressed in transfected cells; host or cells: 293 cells (HEK-293), pEBTetD/OAT2h, doxycycline-inducible
T2 sequence (Q9Y694 1-546 isoform Q9Y694-2): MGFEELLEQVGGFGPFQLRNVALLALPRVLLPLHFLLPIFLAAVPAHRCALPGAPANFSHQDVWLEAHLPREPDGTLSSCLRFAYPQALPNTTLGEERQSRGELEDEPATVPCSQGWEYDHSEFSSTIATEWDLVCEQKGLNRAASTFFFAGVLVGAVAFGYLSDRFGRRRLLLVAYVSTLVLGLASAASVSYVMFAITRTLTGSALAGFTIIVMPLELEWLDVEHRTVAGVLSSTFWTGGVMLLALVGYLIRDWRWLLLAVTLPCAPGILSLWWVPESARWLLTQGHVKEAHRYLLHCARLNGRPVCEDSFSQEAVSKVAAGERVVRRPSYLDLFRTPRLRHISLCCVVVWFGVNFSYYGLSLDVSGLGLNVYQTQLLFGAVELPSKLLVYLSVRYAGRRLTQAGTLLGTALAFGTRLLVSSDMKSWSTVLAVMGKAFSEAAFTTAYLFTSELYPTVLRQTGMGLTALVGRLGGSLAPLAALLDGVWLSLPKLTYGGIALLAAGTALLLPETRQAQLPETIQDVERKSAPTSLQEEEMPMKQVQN

B1: OAT2r (Rattus norvegicus) (protein)
chain: T1 sequence (Q5RLM2 1-535)

Columns and labels:
OAT2r [1] = biological target: T1, OAT2r; test: 1 min uptake into 293 cells expressing OAT2 from rat; format: cell-based; conditions: 1 min uptake, 0.1 μmol/l radiotracer or 10 μmol/l unlabeled compound;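 also: uptake at 37 °C, read by liquid scintillation counting or LC-ESI-MS/MS, carrier-mediated part as induced-minus-uninduced expression difference corrected for baseline content, protein by BCA assay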
Method: (§1) Cells were used for uptake experiments at a confluence of at least 70%. Uptake was measured at 37° C. […] After preincubation for at least 20 minutes in 4 ml of uptake buffer, the buffer was replaced with 2 ml of substrate in uptake buffer. The total substrate concentration if not indicated otherwise was 0.1 μmol/l for radiotracer assays and 10 μmol/l for unlabeled compounds. Incubation was stopped after 1 min by rinsing the cells four times each with 4 ml ice-cold uptake buffer. Radioactivity was determined, after cell lysis with 0.1% v/v Triton X-100 in 5 mmol/l TRIS-HCl pH 7.4, by liquid scintillation counting. For LCelectrospray ionization-MS/MS analysis, cells were lysed with methanol and stored at −20° C.
(§2) After centrifugation (1 min, 16000×g, 20° C.) of thawed lysates, 100 μl of the supernatant was mixed with either 10 μl unlabeled MPP+ iodide (0.5 ng/μl) or biphenyl-4-carboxylic acid (Sigma-Aldrich) as internal standard. […] Atmospheric pressure ionization with positive or negative electrospray was used. For quantification (scan time 150 ms), the optimal collision energy for argon-induced fragmentation in the second quadrupole was determined for each analyte. […] Linear calibration curves were constructed from at least six standards which were prepared using control cell lysates as solvent. Sample analyte content was calculated from the analyte response ratio and the slope of the calibration curve, obtained by linear regression. With LC-MS quantitation, solute content of cell lysates was determined for 4 conditions (paired dishes, incubation time 1 min): a) transporter expression on, uptake buffer; b) expression off, uptake buffer; c) expression on, substrate in uptake buffer; d) expression off, substrate in uptake buffer. Acute uptake mediated by heterologously expressed carrier was then calculated as (c−a)−(d−b). This approach takes into account endogenous solute content and non-specific uptake. Protein was measured by the BCA assay (Pierce) with bovine serum albumin as standard. The protein content of MS samples was estimated from 3 matched cell dishes.

OAT2r [2] = biological target: T1, OAT2r; test: 24 h accumulation in lysates of OAT2r-expressing versus control cells (LC-MS/MS); format: cell-based; conditions: for increase in OAT2r cell lysates versus control cells (factor f): 24 h incubation, compound at 100 μmol/l
Method: A substrate search by LC-MS difference shading was performed with 293 cells stably transfected to express OAT2 from rat. […] To verify that trigonelline is directly transported by OAT2 and not just increased indirectly, initial rates of uptake (1 min, 37° C.) of trigonelline (10 μmol/l) were determined by LC-MS/MS.
With trigonelline as substrate lead, compounds wholly or partly related in structure were analyzed for transport by OAT2 from rat.
After centrifugation (1 min, 16000×g, 20° C.) of thawed lysates, 100 μl of the supernatant was mixed with either 10 μl unlabeled MPP+ iodide (0.5 ng/μl) or biphenyl-4-carboxylic acid (Sigma-Aldrich) as internal standard. Of this mixture, […] were analyzed by LCMS/MS on a triple quadrupole mass spectrometer (4000 Q TRAP, Applied Biosystems, Darmstadt, Germany). […] Atmospheric pressure ionization with positive or negative electrospray was used. For quantification (scan time 150 ms), the optimal collision energy for argon-induced fragmentation in the second quadrupole was determined for each analyte. […] Linear calibration curves were constructed from at least six standards which were prepared using control cell lysates as solvent. Sample analyte content was calculated from the analyte response ratio and the slope of the calibration curve, obtained by linear regression. With LC-MS quantitation, solute content of cell lysates was determined for 4 conditions ([…]): a) transporter expression on, uptake buffer; b) expression off, uptake buffer; c) expression on, substrate in uptake buffer; d) expression off, substrate in uptake buffer. Acute uptake mediated by heterologously expressed carrier was then calculated as (c−a)−(d−b). This approach takes into account endogenous solute content and non-specific uptake. Protein was measured by the BCA assay (Pierce) with bovine serum albumin as standard. The protein content of MS samples was estimated from 3 matched cell dishes.

OAT2h = biological target: T2, OAT2h; test: 1 min uptake into 293 cells expressing OAT2 from human; format: cell-based; conditions: radiotracer
Method: as §1, §2

OAT2r [3] = biological target: T1, OAT2r; test: trans-stimulation of efflux of 3H-orotic acid via OAT2r; format: cell-based; conditions: 1 mmol/l compound in uptake buffer, 1 min, preloaded cells
[4] = substrate: O=C(O)c1cc(=O)[nH]c(=O)[nH]1; test: cells, lysate or membranes; conditions: other: saturation of OAT2r-mediated uptake, 1 min

Molecule | transport by OAT2r (in words) (OAT2r [1]) | increase in OAT2r cell lysates versus control cells (factor f) (OAT2r [2]) | other results
C[n+]1cccc(C(N)=O)c1 [1-methylnicotinamide] | no transport | – | –
Nc1ccccc1C(=O)O [2-aminobenzoic acid] | no transport | 1.1 | –
CCN(CC)CCC(=O)O [3-(diethylamino)propionic acid] | – | 1.1 | –
Nc1cccc(C(=O)O)c1 [3-aminobenzoic acid] | no transport | 1.4 | –
NC(=O)CC[C@H](N)C(=O)O [3H-glutamine, glutamine] | – | – | uptake by OAT2h (in words) (OAT2h): no uptake
Nc1ccc(C(=O)O)cc1 [4-aminobenzoic acid] | no transport | 1.1 | –
NCC(=O)CCC(=O)O [5-aminolevulinic acid] | no transport | – | –
O=C(O)c1[nH]c(=O)[nH]c(=O)c1F [5-fluoroorotic acid] | transported efficiently | – | –
O=C1CC[C@@H](C(=O)O)N1 [5-oxoproline] | no transport | – | –
C[N+](C)(C)C[C@H](O)CC(=O)[O-] [L-carnitine] | – | 1.0 | –
O=C1C[C@@H](C(=O)O)NC(=O)N1 [L-dihydroorotic acid] | no transport | – | –
O=C(O)[C@@H]1CCCN1 [L-proline] | no transport | – | –
O=C(O)c1cccnc1C(=O)O [Quinolinic acid] | – | 2.7 | difference in lysate content between OAT2r and control cells (in words) (OAT2r [2]; up to 1 h incubation time): virtually no difference
O=C1CC(=O)NC(=O)N1 [barbituric acid] | no transport | – | –
CN(CC(=O)O)C(=N)N [creatine] | no transport | – | –
CC1=NCC[C@@H](C(=O)O)N1 [ectoine] | – | 1.2 | –

Molecule | transport by OAT2r (in words) (OAT2r [1]) | increase in OAT2r cell lysates versus control cells (factor f) (OAT2r [2]) | other results
NCC1(CC(=O)O)CCCCC1 [gabapentin] | – | 1.2 | –
C[N+](C)(C)CC(=O)[O-] [glycine betaine] | – | 1.0 | –
N=C(N)NCC(=O)O [guanidinoacetic acid] | no transport | – | –
O=C(O)CC1NC(=O)NC1=O (stereo not shown) [hydantoin-5-acetic acid] | no transport | – | –
O=C(O)c1c[nH]c(=O)[nH]c1=O [isoorotic acid] | transported efficiently | – | –
O=C(O)c1cc(=O)c2ccccc2[nH]1 [kynurenic acid] | no transport | – | –
CC(O)C(=O)O (stereo not shown) [lactate] | – | – | trans-stimulation of efflux of 3H-orotic acid (in words) (OAT2r [3]): rejects
O=C(O)CC(O)C(=O)O (stereo not shown) [malate] | – | – | trans-stimulation of efflux of 3H-orotic acid (in words) (OAT2r [3]): rejects
NC(=O)c1cccnc1 [nicotinamide] | no transport | no significant increase | –
O=C(O)c1ccc[n+]([C@@H]2O[C@H](COP(=O)(O)O)[C@@H](O)[C@H]2O)c1 [nicotinic acid mononucleotide] | no transport | – | –
O=C([O-])c1ccc[n+]([C@@H]2O[C@H](CO)[C@@H](O)[C@H]2O)c1 [nicotinic acid riboside] | transported slightly more efficiently than trigonelline | – | –
O=C(O)c1cccnc1 [nicotinic acid] | no transport | no significant increase | –
Cc1cc2nc3c(=O)[nH]c(=O)nc-3n(C[C@H](O)[C@H](O)[C@H](O)CO)c2cc1C [riboflavin] | no transport | 1.2 | –
C[N+]1(C)CCC[C@H]1C(=O)[O-] [stachydrine] | no transport | 1.2 | –
Cc1ncc(C[n+]2csc(CCO)c2C)c(N)n1 [thiamine] | no transport | – | –
B1 | – | – | Km [4]: 200 (95% confidence interval: 160-240) μmol/l

From patent US20140090094A1, “MODULATORS OF SLC22A7” (BAYER INTELLECTUAL PROPERTY GmbH, priority 2011, published 2014)
